Experiments:
[1] = Biodistribution of [^18F]WC-II-89 in normal and cycloheximide-treated rats; format: in vivo, Sprague-Dawley rats
Protocol: All animal studies were performed in accordance with the regulations of the Washington University Institutional Animal Care and Use Committee. Mature male Sprague Dawley rats from Charles River Laboratories were briefly anesthetized with 1-2% isoflurane in oxygen. […] Treated rats also received 5 mg/kg cycloheximide in saline via the tail vein three hours prior to radiotracer administration in order to induce caspase-mediated liver apoptosis. At set time-points following radiopharmaceutical injection, rats were again anesthetized and euthanized. Target and non-target organs were removed, weighed, and the radioactivity was counted using a Beckman Gamma 8000 well counter. Standard dilutions of the injected dose were counted along with the samples and uptake was calculated and reported as percent injected dose per gram (% ID/g).
This model, which uses the protein synthesis inhibitor, cycloheximide (CHX), was previously used in the evaluation of radiolabeled annexin V analogs (37). Tissue morphology and TUNEL staining studies have shown that cycloheximide induces apoptosis in rat liver in both a dose-dependent and time-dependent manner. Within 3 hours of treatment with 1.5, 3, or 10 mg of cycloheximide per kilogram of body weight, apoptosis was induced in rat liver (35, 36). Therefore, we chose 3 hours treatment of 5 mg/kg to induce the maximum apoptosis in rat liver, expecting a high level of caspase-3 activation.
In general, the initial uptake was higher for CHX treated rats than control rats. However, the difference between control and treated rats was reduced with time with the exception of the liver and spleen.

[2] = MicroPET imaging of [^18F]WC-II-89 in control and cycloheximide-treated rat; format: in vivo; details: cycloheximide 3-hour pretreated rat versus control, 10-60 minutes post-i.v. injection
Protocol: MicroPET imaging studies were performed using a MicroPET Focus 220 and MicroPET Focus 120 scanner (Siemens/CTI, Knoxyille, Tenn.). A control and cycloheximide-treated (5 mg/kg, 3 hours pretreated) rat were anesthetized and a catheter inserted in the jugular vein. […] MicroPET images were reconstructed with OSEM-2D data analysis software package (Siemens/CTI, Knoxyille, Tenn.).
This was also confirmed by Western blot analysis of the rat livers following completion of the microPET imaging study.

O=C1C(=O)N(Cc2ccc(OCC[18F])cc2)c2ccc(S(=O)(=O)N3CCC[C@H]3COc3ccccc3)cc21 [[^18F]WC-II-89]
% I.D./gram ([1]; blood, control rats, 5 min.): 2.70 ± 0.21 % I.D./gram | % I.D./gram ([1]; blood, control rats, 1 hr.): 0.11 ± 0.01 % I.D./gram | % I.D./gram ([1]; blood, control rats, 2 hr.): 0.06 ± 0.01 % I.D./gram | % I.D./gram ([1]; blood, cycloheximide-treated rats, 5 min.): 3.66 ± 0.40 % I.D./gram | % I.D./gram ([1]; blood, cycloheximide-treated rats, 1 hr.): 0.16 ± 0.01 % I.D./gram | % I.D./gram ([1]; blood, cycloheximide-treated rats, 2 hr.): 0.07 ± 0.00 % I.D./gram | % I.D./gram ([1]; bone, control rats, 5 min.): 0.44 ± 0.04 % I.D./gram | % I.D./gram ([1]; bone, control rats, 1 hr.): 0.13 ± 0.02 % I.D./gram | % I.D./gram ([1]; bone, control rats, 2 hr.): 0.15 ± 0.06 % I.D./gram | % I.D./gram ([1]; bone, cycloheximide-treated rats, 5 min.): 0.66 ± 0.06 % I.D./gram | % I.D./gram ([1]; bone, cycloheximide-treated rats, 1 hr.): 0.12 ± 0.01 % I.D./gram | % I.D./gram ([1]; bone, cycloheximide-treated rats, 2 hr.): 0.13 ± 0.03 % I.D./gram | uptake of radioactivity in bone ([1]; bone, defluorination): very low uptake | % I.D./gram ([1]; fat, control rats, 5 min.): 0.12 ± 0.02 % I.D./gram | % I.D./gram ([1]; fat, control rats, 1 hr.): 0.15 ± 0.02 % I.D./gram | % I.D./gram ([1]; fat, control rats, 2 hr.): 0.07 ± 0.01 % I.D./gram | % I.D./gram ([1]; fat, cycloheximide-treated rats, 5 min.): 0.09 ± 0.03 % I.D./gram | % I.D./gram ([1]; fat, cycloheximide-treated rats, 1 hr.): 0.14 ± 0.01 % I.D./gram | % I.D./gram ([1]; fat, cycloheximide-treated rats, 2 hr.): 0.09 ± 0.01 % I.D./gram | % I.D./gram ([1]; kidney, control rats, 5 min.): 1.25 ± 0.14 % I.D./gram | % I.D./gram ([1]; kidney, control rats, 1 hr.): 0.53 ± 0.07 % I.D./gram | % I.D./gram ([1]; kidney, control rats, 2 hr.): 0.18 ± 0.04 % I.D./gram | % I.D./gram ([1]; kidney, cycloheximide-treated rats, 5 min.): 1.18 ± 0.08 % I.D./gram | % I.D./gram ([1]; kidney, cycloheximide-treated rats, 1 hr.): 0.55 ± 0.05 % I.D./gram | % I.D./gram ([1]; kidney, cycloheximide-treated rats, 2 hr.): 0.23 ± 0.05 % I.D./gram | uptake in liver, treated rats higher than control ([1]; liver, 1-hour post-i.v. injection, cycloheximide-treated vs control): 94% | % I.D./gram ([1]; liver, control rats, 5 min.): 3.13 ± 0.26 % I.D./gram | % I.D./gram ([1]; liver, control rats, 1 hr.): 0.38 ± 0.06 % I.D./gram | % I.D./gram ([1]; liver, control rats, 2 hr.): 0.16 ± 0.02 % I.D./gram | % I.D./gram ([1]; liver, cycloheximide-treated rats, 5 min.): 4.02 ± 0.45 % I.D./gram | % I.D./gram ([1]; liver, cycloheximide-treated rats, 1 hr.): 0.73 ± 0.12 % I.D./gram | % I.D./gram ([1]; liver, cycloheximide-treated rats, 2 hr.): 0.22 ± 0.03 % I.D./gram | % I.D./gram ([1]; lung, control rats, 5 min.): 1.42 ± 0.34 % I.D./gram | % I.D./gram ([1]; lung, control rats, 1 hr.): 0.18 ± 0.03 % I.D./gram | % I.D./gram ([1]; lung, control rats, 2 hr.): 0.08 ± 0.01 % I.D./gram | % I.D./gram ([1]; lung, cycloheximide-treated rats, 5 min.): 2.08 ± 0.23 % I.D./gram | % I.D./gram ([1]; lung, cycloheximide-treated rats, 1 hr.): 0.23 ± 0.03 % I.D./gram | % I.D./gram ([1]; lung, cycloheximide-treated rats, 2 hr.): 0.11 ± 0.02 % I.D./gram | % I.D./gram ([1]; muscle, control rats, 5 min.): 0.14 ± 0.01 % I.D./gram | % I.D./gram ([1]; muscle, control rats, 1 hr.): 0.08 ± 0.01 % I.D./gram | % I.D./gram ([1]; muscle, control rats, 2 hr.): 0.03 ± 0.00 % I.D./gram | % I.D./gram ([1]; muscle, cycloheximide-treated rats, 5 min.): 0.09 ± 0.00 % I.D./gram | % I.D./gram ([1]; muscle, cycloheximide-treated rats, 1 hr.): 0.10 ± 0.02 % I.D./gram | % I.D./gram ([1]; muscle, cycloheximide-treated rats, 2 hr.): 0.06 ± 0.00 % I.D./gram | uptake in spleen, treated rats higher than control ([1]; spleen, 1-hour post-i.v. injection, cycloheximide-treated vs control): 184% | % I.D./gram ([1]; spleen, control rats, 5 min.): 1.14 ± 0.08 % I.D./gram | % I.D./gram ([1]; spleen, control rats, 1 hr.): 0.15 ± 0.05 % I.D./gram | % I.D./gram ([1]; spleen, control rats, 2 hr.): 0.06 ± 0.01 % I.D./gram | % I.D./gram ([1]; spleen, cycloheximide-treated rats, 5 min.): 2.24 ± 0.41 % I.D./gram | % I.D./gram ([1]; spleen, cycloheximide-treated rats, 1 hr.): 0.43 ± 0.05 % I.D./gram | % I.D./gram ([1]; spleen, cycloheximide-treated rats, 2 hr.): 0.11 ± 0.03 % I.D./gram | % I.D./gram ([1]; thymus, control rats, 5 min.): 0.23 ± 0.07 % I.D./gram | % I.D./gram ([1]; thymus, control rats, 1 hr.): 0.09 ± 0.01 % I.D./gram | % I.D./gram ([1]; thymus, control rats, 2 hr.): 0.04 ± 0.00 % I.D./gram | % I.D./gram ([1]; thymus, cycloheximide-treated rats, 5 min.): 0.38 ± 0.10 % I.D./gram | % I.D./gram ([1]; thymus, cycloheximide-treated rats, 1 hr.): 0.12 ± 0.02 % I.D./gram | % I.D./gram ([1]; thymus, cycloheximide-treated rats, 2 hr.): 0.06 ± 0.01 % I.D./gram | microPET uptake in the liver [2]: higher uptake

From patent US8329686B2, “Isatin analogues and uses therefor” (Washington University, priority 2006, dated 2012)
